Measured values reported in patent US9346812B2, “Substituted pyrrolopyrimidine compounds, compositions thereof, and methods of treatment therewith” (Signal Pharmaceutical LLC, priority 2013, dated 2016).

These molecules were tested on CAL51 cell proliferation (assay: Cell Titer Glo Proliferation Assay (CAL51)). Conditions: Homo sapiens, CAL-51; CAL51 cell proliferation, 72 h, Cell Titer Glo luminescence; read-out: Act. Level.
Format: cell-based, human
How it was run: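 CAL51 triple-negative breast cancer cells in DMEM or RPMI with 10% FBS were treated after overnight culture with serially diluted compound at 0.2% final DMSO. After 72 h, viability was read as CellTiter-Glo luminescence.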
In the case of `CNC(=O)c1ccc(Nc2nc(OC3CCCC3)c3c(-c4ccc(NC(C)=O)c(O)c4)c[nH]c3n2)c(OC)c1` [Example 290, 4-(5-(4-acetamido-3-hydroxy-phenyl)-4-(cyclopentyloxy)-7H-pyrrolo[2,3-d]pyrimidin-2-ylamino)-3-methoxy-N-methylbenzamide], the IC50 is reported as 100 to 400 nM.
`COc1cc(C(=O)N2C[C@@H](O)[C@H](OC)C2)ccc1Nc1nc(OC2CCCC2)c2c(-c3ccc4nc(C)oc4c3)c[nH]c2n1` [Example 291, (4-(4-(cyclopentyloxy)-5-(2-methylbenzo[d]oxazol-6-yl)-7H-pyrrolo[2,3-d]pyrimidin-2-ylamino)-3-methoxyphenyl) ((3R,4R)-3-hydroxy-4-methoxypyrrolidin-1-yl) methanone] was tested, and the IC50 was < 100 nM.
`COc1cc(C(=O)NN2CCCCC2)ccc1Nc1nc(OC2CCCC2)c2c(-c3ccc4nc(C)oc4c3)c[nH]c2n1` [Example 292, 4-(4-(cyclopentyloxy)-5-(2-methylbenzo[d]oxazol-6-yl)-7H-pyrrolo[2,3-d]pyrimidin-2-ylamino)-3-methoxy-N-(piperidin-1-yl)benzamide] was tested, and the IC50 was 100 to 400 nM.
With `CCOc1nc2ccc(-c3c[nH]c4nc(Nc5ccc(C(=O)NC)cc5OC)nc(OC5CCCC5)c34)cc2o1` [Example 293, 4-(4-(cyclopentyloxy)-5-(2-ethoxybenzo[d]oxazol-6-yl)-7H-pyrrolo[2,3-d]pyrimidin-2-ylamino)-3-methoxy-N-methylbenzamide] the IC50 was 100 to 400 nM.
`CNC(=O)c1ccc(Nc2nc(OC3CCCC3)c3c(-c4ccc(N)c(O)c4)c[nH]c3n2)c(OC)c1` [Example 294, 4-(5-(4-amino-3-hydroxyphenyl)-4-(cyclopentyloxy)-7H-pyrrolo [2,3-d]pyrimidin-2-ylamino)-3-methoxy-N-methylbenzamide] showed an IC50 of 100 to 400 nM.
With `Cc1nc2ccc(-c3c[nH]c4nc(Nc5ccnn5C)nc(OC5CCCC5)c34)cc2o1` [Example 295, 4-(cyclopentyloxy)-N-(1-methyl-1H-pyrazol-5-yl)-5-(2-methylbenzo[d]oxazol-6-yl)-7H-pyrrolo[2,3-d]pyrimidin-2-amine] the IC50 was 100 to 400 nM.
In the case of `Cc1nc2ccc(-c3c[nH]c4nc(Nc5cnn(C)c5C)nc(OC5CCCC5)c34)cc2o1` [Example 296, 4-(cyclopentyloxy)-N-(1,5-dimethyl-1H-pyrazol-4-yl)-5-(2-methylbenzo[d]oxazol-6-yl)-7H-pyrrolo[2,3-d]pyrimidin-2-amine], the IC50 is reported as < 100 nM.
For `Cc1nc2ccc(-c3c[nH]c4nc(Nc5nn(C)cc5C)nc(OC5CCCC5)c34)cc2o1` [Example 297, 4-(cyclopentyloxy)-N-(1,4-dimethyl-1H-pyrazol-3-yl)-5-(2-methylbenzo[d]oxazol-6-yl)-7H-pyrrolo[2,3-d]pyrimidin-2-amine], the IC50 was 1000 to 10000 nM.
For `CNC(=O)c1cc(C)c(Nc2nc(OC3CCCC3)c3c(-c4ccc5nc(C)oc5c4)c[nH]c3n2)c(OC)c1` [Example 298, 4-(4-(cyclopentyloxy)-5-(2-methylbenzo[d]oxazol-6-yl)-7H-pyrrolo[2,3-d]pyrimidin-2-ylamino)-3-methoxy-N,5-dimethylbenzamide], the IC50 was 1000 to 10000 nM.
Molecule `CNC(=O)c1ccc(Nc2nc(OC3CCCC3)c3c(-c4ccc5[nH]c(=O)oc5c4)c[nH]c3n2)c(OC)c1` [Example 299, 4-(4-(cyclopentyloxy)-5-(2-oxo-2,3-dihydrobenzo[d]oxazol-6-yl)-7H-pyrrolo[2,3-d]pyrimidin-2-ylamino)-3-methoxy-N-methylbenzamide] has an IC50 of 100 to 400 nM.
Work on `COc1cc(C(=O)NC2(C)COC2)ccc1Nc1nc(OC2CCCC2)c2c(-c3ccc4nc(C)oc4c3)c[nH]c2n1` [Example 301, 4-(4-(cyclopentyloxy)-5-(2-methylbenzo[d]oxazol-6-yl)-7H-pyrrolo[2,3-d]pyrimidin-2-ylamino)-3-methoxy-N-(3-methyloxetan-3-yl)benzamide] yielded an IC50 of 100 to 400 nM.
With `COc1cc(C(=O)NC2COC2)ccc1Nc1nc(OC2CCC2)c2c(-c3cnn(C)c3)c[nH]c2n1` [Example 302, 4-(4-cyclobutoxy-5-(1-methyl-1H-pyrazol-4-yl)-7H-pyrrolo[2,3-d]pyrimidin-2-ylamino)-3-methoxy-N-(oxetan-3-yl) benzamide] the IC50 was 100 to 400 nM.
`COc1cc(C(=O)NC2COC2)ccc1Nc1nc(OC2CCCC2)c2c(-c3cnn(C)c3)c[nH]c2n1` [Example 303, 4-(4-(cyclopentyloxy)-5-(1-methyl-1H-pyrazol-4-yl)-7H-pyrrolo[2,3-d]pyrimidin-2-ylamino)-3-methoxy-N-(oxetan-3-yl)benzamide] was tested, and the IC50 was < 100 nM.
For `CNC(=O)c1ccc(-c2c[nH]c3nc(Nc4ccc(C(=O)NC5COC5)cc4OC)nc(OC4CCCC4)c23)cc1` [Example 305, 4-(4-(cyclopentyloxy)-5-(4-(methylcarbamoyl)phenyl)-7H-pyrrolo[2,3-d]pyrimidin-2-ylamino)-3-methoxy-N-(oxetan-3-yl)benzamide], the IC50 was < 100 nM.
In the case of `CNC(=O)c1ccc(Nc2nc(OC3CCCC3)c3c(-c4ccc5ncccc5c4)c[nH]c3n2)c(OC)c1` [Example 306, 4-(4-(cyclopentyloxy)-5-(quinolin-6-yl)-7H-pyrrolo[2,3-d]pyrimidin-2-ylamino)-3-methoxy-N-methylbenzamide], the IC50 is reported as < 100 nM.
With `Cc1nc2ccc(-c3c[nH]c4nc(Nc5cn(C)nc5C)nc(OC5CCCC5)c34)cc2o1` [Example 307, 4-(cyclopentyloxy)-N-(1,3-dimethyl-1H-pyrazol-4-yl)-5-(2-methylbenzo[d]oxazol-6-yl)-7H-pyrrolo[2,3-d]pyrimidin-2-amine] the IC50 was < 100 nM.
In the case of `COc1cc(C(=O)NC2CN(C(C)=O)C2)ccc1Nc1nc(OC2CCCC2)c2c(-c3ccc4nc(C)oc4c3)c[nH]c2n1` [Example 308, N-(1-acetylazetidin-3-yl)-4-(4-(cyclopentyloxy)-5-(2-methylbenzo[d]oxazol-6-yl)-7H-pyrrolo[2,3-d]pyrimidin-2-ylamino)-3-methoxybenzamide], the IC50 is reported as 100 to 400 nM.
In the case of `COc1cc(C(=O)NCC(C)(F)F)ccc1Nc1nc(OC2CCCC2)c2c(-c3ccc4nc(C)oc4c3)c[nH]c2n1` [Example 309, 4-(4-(cyclopentyloxy)-5-(2-methylbenzo[d]oxazol-6-yl)-7H-pyrrolo[2,3-d]pyrimidin-2-ylamino)-N-(2,2-difluoropropyl)-3-methoxybenzamide], the IC50 is reported as 100 to 400 nM.
For `CNC(=O)c1ccc(-c2c[nH]c3nc(Nc4ccc(C(=O)NC5COC5)cc4OC)nc(OC4CCOCC4)c23)cc1` [Example 310, 3-methoxy-4-(5-(4-(methylcarbamoyl)phenyl)-4-(tetrahydro-2H-pyran-4-yloxy)-7H-pyrrolo[2,3-d]pyrimidin-2-ylamino)-N-(oxetan-3-yl) benzamide], the IC50 was < 100 nM.
`COc1cc(C(=O)N2C[C@@H](OC)[C@H](OC)C2)ccc1Nc1nc(OC2CCCC2)c2c(-c3ccc4nc(C)oc4c3)c[nH]c2n1` [Example 311, (4-(4-(cyclopentyloxy)-5-(2-methylbenzo[d]oxazol-6-yl)-7H-pyrrolo[2,3-d]pyrimidin-2-ylamino)-3-methoxyphenyl) ((3R,4R)-3,4-dimethoxypyrrolidin-1-yl)methanone] was tested, and the IC50 was < 100 nM.
`COc1cc(C(=O)N2CC2(C)C)ccc1Nc1nc(OC2CCCC2)c2c(-c3ccc4nc(C)oc4c3)c[nH]c2n1` [Example 312, (4-(4-(cyclopentyloxy)-5-(2-methylbenzo[d]oxazol-6-yl)-7H-pyrrolo[2,3-d]pyrimidin-2-ylamino)-3-methoxyphenyl)(2,2-dimethylaziridin-1-yl)methanone] was tested, and the IC50 was 400 to 1000 nM.
Molecule `COc1cc(C(=O)N2C[C@@H]2C)ccc1Nc1nc(OC2CCCC2)c2c(-c3ccc4nc(C)oc4c3)c[nH]c2n1` [Example 313, (S)-(4-(4-(cyclopentyloxy)-5-(2-methylbenzo[d]oxazol-6-yl)-7H-pyrrolo[2,3-d]pyrimidin-2-ylamino)-3-methoxyphenyl)(2-methylaziridin-1-yl)methanone] has an IC50 of 400 to 1000 nM.
`COc1cc(C(=O)NC2COC2)ccc1Nc1nc(O[C@H]2CC[C@@](C)(O)CC2)c2c(-c3ccc4nc(C)oc4c3)c[nH]c2n1` [Example 314, 4-(4-((1s,4s)-4-hydroxy-4-methylcyclohexyloxy)-5-(2-methylbenzo[d]oxazol-6-yl)-7H-pyrrolo[2,3-d]pyrimidin-2-ylamino)-3-methoxy-N-(oxetan-3-yl)benzamide] was tested, and the IC50 was < 100 nM.
For `COc1cc(C(=O)N2CC2)ccc1Nc1nc(O[C@H]2CC[C@@](C)(O)CC2)c2c(-c3ccc4nc(C)oc4c3)c[nH]c2n1` [Example 315, aziridin-1-yl(4-(4-((1s,4s)-4-hydroxy-4-methylcyclohexyloxy)-5-(2-methylbenzo[d]oxazol-6-yl)-7H-pyrrolo[2,3-d]pyrimidin-2-ylamino)-3-methoxyphenyl) methanone], the IC50 was < 100 nM.
With `CNC(=O)c1ccc(-c2c[nH]c3nc(Nc4ccnn4C)nc(OC4CCCC4)c23)cc1` [Example 316, 4-(4-(cyclopentyloxy)-2-(1-methyl-1H-pyrazol-5-ylamino)-7H-pyrrolo [2,3-d]pyrimidin-5-yl)-N-methylbenzamide] the IC50 was < 100 nM.
`CNC(=O)c1ccc(-c2c[nH]c3nc(Nc4ccnn4C)nc(OC4CCOCC4)c23)cc1` [Example 317, N-methyl-4-(2-(1-methyl-1H-pyrazol-5-ylamino)-4-(tetrahydro-2H-pyran-4-yloxy)-7H-pyrrolo [2,3-d]pyrimidin-5-yl)benzamide] gave an IC50 of 400 to 1000 nM.
